These are literature values, as cited in patent publication US20090258907A1, “COMPOUNDS USEFUL AS INHIBITORS OF ROCK KINASES” (ABBOTT LABORATORIES, priority 2008, published 2009).

For data set [1] the following is noted: CNS ischemic conditions.
The conditions of data set [2]: experimental myocardial infarction (MI); rat chronic hypertension induced congestive heart failure.
For data set [3] the following is noted: mouse, in vivo.
For data set [4] the following is noted: OLETF rats, high dose.
The conditions of data set [5]: Zucker obese rats, 4 weeks.
The test system of data set [6] is vascular smooth muscle cell (VSMC). Conditions: vein grafts, weeks following the procedure.

With `O=S(=O)(c1cccc2cnccc12)N1CCCNCC1` [fasudil], the “cerebral blood flow and neuroprotection” value in data set [1] is “increased cerebral blood flow and was neuroprotective”. Also, the “effect on ischemia-reperfusion injury, myocardial infarct size and myocardial fibrosis” value in data set [2] is “decrease ischemia-reperfusion injury, myocardial infarct size, and myocardial fibrosis”. In addition, the “efficacy in animal models of epileptogenesis” value in data set [3] was “efficacy”. In data set [4], the “development of diabetes, obesity, dyslipidemia; serum adiponectin” value is “completely suppressed the development of diabetes, obesity, and dyslipidemia and increased serum adiponectin levels”. The “blood pressure, glucose and lipid metabolism, insulin signalling, endothelial dysfunction” value in data set [5] is “reduced blood pressure, corrected glucose and lipid metabolism, improved insulin signalling and endothelial dysfunction”. Moreover, in data set [6], the VSMC apoptosis result was “enhanced”; the “intimal thickening and VSMC proliferation” value is given as “significantly suppressed”.
